Drawing on a melting point compilation (Tetko et al.; mined from patent text by program, amines drawn as free bases though some values may be those of a salt), this text covers melting point for 90 compounds.

A word on the melting point: it is the temperature of the solid-liquid transition.

For `CCOc1nc(C(F)(F)F)cc(=O)n1-c1cc(OC)c(Cl)cc1F`, the melting point is 117 to 119 °C.

On to `C#CCOc1ccc(S(=O)(=O)C2(C(=O)O)CCN(Cc3ccc(OC)cc3)CC2)cc1`, for which the melting point was found to be 208 °C.

As for `CC(=O)O[C@H]1C[C@@H](n2ccc(=O)cc2)[C@H](O)[C@@H]1O` (racemic), the melting point was in the range of 191 to 196 °C.

On to `CCc1cccc2c(-c3nc(OC)cc(OC)n3)c(C)[nH]c12`, for which the melting point lay in the range of 90.3 to 94.8 °C.

As to `CCOC(=O)c1nc2sc(C(C)C)cc2c(=O)o1`, the melting point was in the range of 87.5 to 88.5 °C.

The compound `C[Si](C)(O[Si](C)(C)c1cccnc1F)c1cccnc1F` yielded a melting point of 41 to 42 °C.

The compound `N#CN1CCC(c2nn(C(=O)c3ccccc3)c3ccccc23)CC1` came in with a melting point of 144 to 146 °C.

For `Nc1ncc(C#Cc2ccc(Cl)cc2)c(NCCOCCO)n1`, the melting point lay in the range of 176 to 180 °C.

As to `CC(C(=O)O)c1ccc2c(c1)CCc1ccccc1S2` (stereo not given), the melting point is 103 to 104 °C.

The compound `COC(=O)[C@@H](NC(=O)[C@H](Cc1ccccc1)NC(=O)c1ccccc1)C(C)C` yielded a melting point of 160 to 163 °C.

For `CNc1c(C/C=C(\C)CCC(=O)O)c(OC)c(C)c2c1C(=O)OC2`, the melting point fell in the range of 121 to 124 °C.

Turning to `CC(C)n1c(C=O)c(-c2ccc(F)cc2)c(-c2ccc(F)cc2)c1C(=O)O`, the melting point lay in the range of 228 to 230 °C.

`C=C(c1ccc(-n2cncn2)nc1)C1(c2ccc(F)cc2F)CO1` (stereo not given): the melting point fell in the range of 120 to 122 °C.

Take `CC(C)(C)c1cc(CC2SCNC2=O)ccc1O` (stereo not given): the melting point lay in the range of 65 to 70 °C.

`CCCCNc1ccc(-c2c(N)nc(N)nc2CC)cc1[N+](=O)[O-]` returned a melting point of 252 to 254 °C.

As to `Cc1cc(Cn2c(-c3ccccc3)nc(Cl)c2CC(=O)O)ccc1O`, the melting point fell in the range of 190 to 193 °C.

`Cc1cc2c(-c3ccccc3Cl)c(N)c(=O)n(C)c2cc1C`: the melting point lay within 242 to 243 °C.

In turn, `CCOC(=O)c1cn(Cc2cnsn2)c2c(F)c(F)c(F)cc2c1=O` showed a melting point of 200 to 203 °C.

In turn, `CN(C)Cc1cccc(OCCCNc2nc(N)n[nH]2)c1` came in with a melting point of 92 to 93 °C.

`Cc1cc(C)nc(-n2ccnc2SCc2ccccc2NC=O)c1` displayed a melting point of 124 to 126 °C.

In turn, `O=C1Nc2ccc(Cl)cc2C(C#CC2CC2)(C(F)(F)F)CN1C1CC1` (stereo not given) displayed a melting point of 195 to 196 °C.

In turn, `Cc1cc2cc(C3CCNCC3)oc2cc1C` returned a melting point of 77 to 78 °C.

On to `CC(C)c1c(/C=C/C=O)c(-c2ccccc2)c2c3ccccc3cnn12`, for which the melting point lay within 162 to 164 °C.

The compound `CC(C)(C=C(Br)Br)C(=O)Nc1ccc(Cl)cc1` showed a melting point of 104 °C.

`N#Cc1cccc(-c2nc(-c3cccnc3)no2)n1` returned a melting point of 201 to 203 °C.

With `CC(O)(CCC#N)c1ccc(Oc2cccc(Cl)c2)cc1` (stereo not given), the melting point was 68 to 70 °C.

As for `NC(=O)c1nc(Cl)n2c1CN=C(c1ccccc1Cl)c1cc(Cl)ccc1-2`, the melting point was in the range of 285 to 288 °C.

With `COc1cc2cc(CO)c(CO)c(-c3ccnc(Nc4ccccc4C(CO)CCO)c3)c2cc1OC` (stereo not given), the melting point was in the range of 204 to 207 °C.

The compound `Nc1nc(C(=O)C(=O)O)cs1` returned a melting point of over 200 °C.

In turn, `CC(=O)Nc1ccccc1C(=O)C1CCCCC1` registered a melting point of 66 °C.

As for `BrCCC1(c2ccccc2)OCCO1`, the melting point lay in the range of 57 to 58 °C.

With `CSc1cc2c(cc1C(F)(F)F)N(C(=O)Nc1cccc(OCCCN(C)C)c1)CC2`, the melting point was in the range of 149 to 151 °C.

`O=C(Nc1cccc(S(=O)(=O)N2CCCC2CO)c1)c1cnn2c(C3CC3)cc(-c3ccc(Cl)cc3)nc12` (stereo not given) yielded a melting point of 180 to 182 °C.

`CON1C(=O)CC2(CCN(C(=O)C3=CN(Cc4ccccc4)C=CC3)CC2)C1=O` yielded a melting point of 57 to 73 °C.

For `CCc1c(Oc2cc(C)cc(C)c2)n(C/C=C/CO)c(=O)[nH]c1=O`, the melting point lay in the range of 125 to 126 °C.

`CCOC(=O)CC(C)(C)NCC(O)c1ccc(O)c2[nH]c(C(=O)OCC)cc12` (stereo not given) showed a melting point of 175 to 178 °C.

As for `CCN(c1nc(C)cc(C(=O)c2ccc3[nH]ccc3c2)n1)c1ccc(C(C)C)cc1Br`, the melting point is 77 to 79 °C.

Consider `CC(C)c1ccc(N(Cc2cn[nH]c2)C(=O)C2CCCc3c(O)cccc32)cc1` (stereo not given), for which the melting point stood at 247 °C.

`CC(=O)C(c1ccc(Cl)cc1)c1c(Cl)cc(-n2ncc(=O)[nH]c2=O)cc1Cl` (stereo not given): the melting point amounted to 208 °C.

In turn, `CN(C)C(=O)N[C@H]1CC[C@H](CCN2CCN(c3cccc(Cl)c3Cl)CC2)CC1` came in with a melting point of 212 to 214 °C.

In turn, `Fc1cccc2c1[nH]c1c2ccc2cc[nH]c21` yielded a melting point of over 250 °C.

`Cc1cc(-n2nc(C(N)=O)nc2-c2ccccc2)ccc1F` showed a melting point of 123 to 126 °C.

With `O=C(O)CNC(=O)c1nc2ccccc2cc1O`, the melting point is 191 °C.

Take `CC(C)(C)C1CCC2(CC1)CC(O)(CNC1CCCCC1)CO2` (stereo not given): the melting point was in the range of 113 to 115 °C.

The compound `CCN(CC)C(C)CN1CCc2c(c(=O)oc3c(OC)c(OC)ccc23)C1` (stereo not given) returned a melting point of 99 to 100 °C.

`C=C(C)COc1cc(C)c(NC=O)c(C)c1C` displayed a melting point of 144 to 145 °C.

`CCNC(=O)CN(C)C(=O)[C@H](C)NC(=O)CC` showed a melting point of 149 to 151 °C.

The compound `O=C1NCCC1Cc1ccc(Cl)nc1` (stereo not given) yielded a melting point of 117 to 118 °C.

The compound `CSc1nn2c(N)cc(C)nc2c1S(=O)(=O)c1ccc(I)cc1` gave a melting point of over 230 °C.

As to `NC(=O)C1CN1Cc1ccccc1` (stereo not given), the melting point fell in the range of 114 to 116 °C.

On to `Oc1cccc(NCCc2ccccc2)n1`, for which the melting point lay in the range of 97 to 99 °C.

`COc1ccc(S(=O)(=O)C(CC=C(C)C)(Cc2ccc(OCCN3CCOCC3)cc2)C(=O)NO)cc1` (stereo not given) displayed a melting point of 92 °C.

`CC(C)=CCCOc1c(-c2ccc(S(N)(=O)=O)cc2)cnn(-c2ccc(F)c(F)c2)c1=O` registered a melting point of 70 to 73 °C.

Take `CC1(C)CCCN(C(=O)CN2C(=O)C(NC(=O)Nc3cccc(C(=O)OC(C)(C)C)c3)C(=O)N(c3ccccc3F)c3ccccc32)C1` (stereo not given): the melting point worked out at 170 °C.

As for `CCOC(=O)c1c(C)nn(C)c1CCl`, the melting point lay within 81 to 83 °C.

In turn, `O=C1c2cc([N+](=O)[O-])ccc2CC2CCCCCN12` (stereo not given) displayed a melting point of 118 to 119 °C.

For `NC(=O)C(O)c1ccsc1` (stereo not given), the melting point lay within 114 to 120 °C.

The compound `O=C(NNc1ccccc1Cl)c1c(F)cccc1Cl` displayed a melting point of 156 to 158 °C.

In the case of `c1ccc(CCn2ncc3c2ncn2nc(-c4ccco4)nc32)cc1`, the melting point was 174 to 175 °C.

`CCCCCC1(Cl)Cc2cc(OCC(=O)O)c(Cl)c(Cl)c2C1=O` (stereo not given) displayed a melting point of 122 to 124 °C.

`CC(C)(C)c1ccc(CCC(CC2CCCCC2)OC(=O)Oc2ccc(C(=O)O)cc2)cc1NC(=O)CC1c2ccccc2Oc2ccccc21` (stereo not given) had a melting point of 139 to 141 °C.

With `Cc1cccc2n[nH]c(=O)n12`, the melting point was 182 to 183 °C.

In turn, `CCOC(=O)C1(C2c3[nH]c4ccc(Cl)cc4c3CCN2C(=O)c2ccno2)CCC1` (stereo not given) returned a melting point of 166 to 167 °C.

With `CCOc1ccc(OCc2ccc(OCc3nc(-c4ccccc4)oc3C)cc2)cc1CCC(=O)O`, the melting point lay within 129 to 130 °C.

Compound `OC1(c2ccc(Cl)cc2)c2cc(Cl)c(Cl)cc2CCC1Br` (stereo not given) displayed a melting point of 103 to 104 °C.

`Cc1cccc(C(=O)COc2c(C(=O)c3ccc(Cl)c(C)c3Cl)c(C)nn2C)c1` displayed a melting point of 153 °C.

As to `COc1c(C2CCN(CCCCNC(=O)c3ccc(-c4ccc(C#N)cc4)cc3)CC2)ccc2c1CCCC2`, the melting point is 154 °C.

Consider `Nc1ncc(Sc2ccc(C(F)(F)F)cn2)s1`, for which the melting point lay within 135 to 138 °C.

`Nc1cc(C(F)(F)F)on1` had a melting point of 44 to 45 °C.

Compound `CNC(=O)C1Cc2c(nc(C)n2C)C2=C1C(=O)CC1(Cc3ccccc3C1)N2` (stereo not given) showed a melting point of 93 to 94 °C.

`Nc1cc2c(Nc3ccc(Br)c(Cl)c3)ncnc2cn1` came in with a melting point of 272 to 275 °C.

`CN1CC(CCC#N)Oc2ncccc2C1=S` (stereo not given) came in with a melting point of 155 to 156 °C.

As for `CNC(=O)Nc1ccc(OCCNCC(O)c2ccc(O)cc2)cc1` (stereo not given), the melting point lay in the range of 155 to 160 °C.

With `CC(=O)Nc1ccc2c(c1)CC(=O)N2CCN1CCN(Cc2ccccc2)CC1`, the melting point is 145 to 147 °C.

The compound `O=C(Nc1cccc(Oc2ccccc2)c1)c1ccn2c1CSC2c1cccnc1` (stereo not given) showed a melting point of 144 °C.

Compound `CCCCCN(CCC12CC3CC(CC(C3)C1)C2)C(=O)NC(C)CCc1ccncc1` (stereo not given) gave a melting point of 128 to 129 °C.

`CCCC1CCC(C2CCC(C3CCCC(=O)C3)CC2)CC1` (stereo not given) had a melting point of 1.5 °C.

For `O=c1ccc(-c2ccco2)n[nH]1`, the melting point was in the range of 183 to 184 °C.

As to `O=S(=O)(O)CCc1cccnc1`, the melting point was 275 to 278 °C.

Regarding `NC(=O)c1ccc(-c2nn(-c3ccc(C(=O)O)cc3)c3ccc([N+](=O)[O-])cc23)cc1`, the melting point is 320 to 322 °C.

In the case of `COC1(c2ccc(C)cc2)CCC(=O)CC1`, the melting point lay within 76 to 76.5 °C.

`c1ccc(Oc2ccncc2)cc1` returned a melting point of 46 to 49 °C.

`CSCCCNc1cn(-c2cccnc2)nc1Cl` came in with a melting point of 80 to 81 °C.

The compound `CCOC(=O)COc1ccc(Cn2c(-c3ccc(OC4CCCC4)cc3)c(C)c3cc(OCc4ccccc4)ccc32)cc1` gave a melting point of 96 to 98 °C.

Compound `c1csc(-c2n[nH]c3c2Cc2cc(CN4CCOCC4)ccc2-3)c1` yielded a melting point of 178 to 179 °C.

On to `CCOC(=O)Cc1ccc(-c2nc(COc3ccc(C=O)cc3OC)c(C)o2)cc1`, for which the melting point was 151 to 152 °C.

In the case of `CCCC(=O)c1cnc2c(OCCCN(C)C)cccc2c1Nc1ccc(F)cc1C`, the melting point lay in the range of 99 to 100 °C.

Regarding `CCOC(=O)c1cnc2ccc(Cl)cc2c1Cl`, the melting point was in the range of 87 to 88 °C.

The compound `CCON=Cc1c(S(C)(=O)=O)ccc(C(=O)C2C(=O)CC(C)(C)CC2=O)c1Cl` gave a melting point of 156 to 157 °C.

With `CN(Cc1cc2c(=O)c(C(=O)NCc3ccc(Cl)cc3)cn(C)c2o1)CC(O)c1ncccn1` (single isomer, unassigned; (+)), the melting point was in the range of 127 to 129 °C.
